US12559529B2, “NPY2 receptor agonists” (Boehringer Ingelheim International GmbH, priority 2019, dated 2026)

Assays:
human NPY2 receptor = target: T1, human NPY2 receptor (Homo sapiens, UniProt P49146); assay: HTRF cAMP Gi assay, hY2R
T1 sequence (P49146 1-381): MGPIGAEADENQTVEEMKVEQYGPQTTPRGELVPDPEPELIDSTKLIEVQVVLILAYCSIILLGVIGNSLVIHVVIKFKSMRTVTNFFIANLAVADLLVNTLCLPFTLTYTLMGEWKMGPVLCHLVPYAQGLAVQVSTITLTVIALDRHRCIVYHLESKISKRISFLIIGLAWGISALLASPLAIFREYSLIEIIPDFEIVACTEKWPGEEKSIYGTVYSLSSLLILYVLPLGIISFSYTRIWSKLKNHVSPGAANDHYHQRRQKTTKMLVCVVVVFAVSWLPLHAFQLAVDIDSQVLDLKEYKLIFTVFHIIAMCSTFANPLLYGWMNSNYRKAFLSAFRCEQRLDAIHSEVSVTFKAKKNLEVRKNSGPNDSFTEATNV

[1] = target: T2, Human Neuropeptide Y2 Receptor (Homo sapiens, UniProt P49146); assay: Activity (RLB) after incubation in solutions at different pH values; format: binding; details: apparent Ki of filtrate after 2 h in buffer
T2 construct: purchased CHEMICON HTS066M
T2 sequence (P49146 1-381): T1 sequence (P49146 1-381)
Description: The filtration RLB assay was carried out in 96-well plates in a final volume of 100 μl per well. Freeze-dried test peptides were dissolved in 100% dimethyl sulfoxide (DMSO) to stock solutions of 1 mM and serial dilutions were performed in assay buffer (50 mM HEPES, 5 mM MgCl2, 1 mM CaCl2), pH 7.4) containing 0.2% ovalbumin. […] Next, 80 μL membranes (HTS066M, ChemiSCREEN™ Human Neuropeptide Y2 Receptor Membrane Preparation, CHEMICON) were added to each well to give a final protein concentration of 0.5 μg/well. The plates were sealed and incubated at room temperature for 2 hours in a plate shaker set at 400 rpm. The incubation was stopped by vacuum filtration onto 0.5% poly-ethylene amine (PEI) presoaked GF/C filters using a 96-well FilterMate™ harvester (Perkin Elmer) followed by four washes with 300 μl/well ice-cold wash buffer (50 mM HEPES, 500 mM NaCl, pH7.4). Filter plates were then dried for 60 min at room temperature and the bottom of the plates was sealed with backing tape UniFilter-96. Finally, 50 μl/well scintillation counter cocktail (Microscint20, Packard) was added and the radioactivity was counted in the Packard TopCount NXT scintillation counter. IC50 values (the half maximal inhibitory concentration of the agonist) were calculated by nonlinear regression analysis of sigmoidal dose-response curves.
Peptides (as TFA salts) were weighed out in a filter unit (Mini-UniPrep Syringeless Filter 0.45 μm, Whatman), and 0.1 M sodium diphosphate buffer at pH 6.4 or 7.4, respectively, or 0.2 M TRIS buffer at pH 8.3 was added to achieve 10 mg/ml final concentration. The peptide was (partially) dissolved by shaking the filter unit horizontally at approx. 400 rpm for 2 hours at room temperature. The sample was filtered to remove any insoluble particles.

human NPY5 receptor = target: T3, human NPY5 receptor (Homo sapiens, UniProt Q15761); assay: HTRF cAMP Gi assay, hY5R
T3 sequence (Q15761 1-445): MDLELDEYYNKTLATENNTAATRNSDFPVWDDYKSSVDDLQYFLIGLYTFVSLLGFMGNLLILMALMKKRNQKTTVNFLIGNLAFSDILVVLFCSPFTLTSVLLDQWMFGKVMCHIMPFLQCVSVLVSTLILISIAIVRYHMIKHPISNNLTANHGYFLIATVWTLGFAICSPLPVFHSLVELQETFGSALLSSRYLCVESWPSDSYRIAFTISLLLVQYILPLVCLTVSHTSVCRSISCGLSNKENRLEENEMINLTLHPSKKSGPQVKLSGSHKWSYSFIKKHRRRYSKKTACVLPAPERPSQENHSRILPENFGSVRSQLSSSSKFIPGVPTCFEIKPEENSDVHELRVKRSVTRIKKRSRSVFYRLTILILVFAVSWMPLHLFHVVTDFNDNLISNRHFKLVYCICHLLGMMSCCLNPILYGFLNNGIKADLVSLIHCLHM
Description: The Homogenous Time Resolved fluorescence (HTRF) technology optimized for Gi coupled receptors has thoroughly been described in Cisbio cAMP Gi kit manual. Briefly, the production of intracellular cAMP will generate a competition between unlabeled cAMP and exogenously added d2-cAMP for anti-cAMP antibodies conjugated to cryptate. CHO-K1 cells stably expressing the human NPY1, NPY2, NPY4 and NPY5 receptors were used with the cells brought to life from a frozen stock immediately before assay performance. 2000 cells per well were applied for all four NPY receptor subtype assays. A 384-well format was used applying a total volume of 20 μl using 5 μl cells, 2.5 μl peptide agonist, 2.5 μl forskolin and 5 μl of each of the fluorophores. […] Concentration-response evaluation of compounds was performed with 11 concentrations of agonist peptides (covering 3 decades). EC50 values were calculated by nonlinear regression using sigmoid concentration-response with variable slope.

[2] = target: T2, Human Neuropeptide Y2 Receptor; assay: Radioligand binding competition assay (RLB)
Procedure, shortened: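 Competition binding at commercial human NPY Y2 membrane preparations, 0.5 μg protein per well, 2 h incubation at room temperature. Bound and free ligand were separated on GF/C filters and counted; IC50 was fitted by nonlinear regression.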

human NPY1 receptor = target: T4, human NPY1 receptor (Homo sapiens, UniProt P25929); assay: HTRF cAMP Gi assay, hY1R; format: cell-based; details: Table 4; CHO-K1 cells
T4 construct: expressed in transfected cells; host or cells: CHO-K1
T4 sequence (P25929 1-384): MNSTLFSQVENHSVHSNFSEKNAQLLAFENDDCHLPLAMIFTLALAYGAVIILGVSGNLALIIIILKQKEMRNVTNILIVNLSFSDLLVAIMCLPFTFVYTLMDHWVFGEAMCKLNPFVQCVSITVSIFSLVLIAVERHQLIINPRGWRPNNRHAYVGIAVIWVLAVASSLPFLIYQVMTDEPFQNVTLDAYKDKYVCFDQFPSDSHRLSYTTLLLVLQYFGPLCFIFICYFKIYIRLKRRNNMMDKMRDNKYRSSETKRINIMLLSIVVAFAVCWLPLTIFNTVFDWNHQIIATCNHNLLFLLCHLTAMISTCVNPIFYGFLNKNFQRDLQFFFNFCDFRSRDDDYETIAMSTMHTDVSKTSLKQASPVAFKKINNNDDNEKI
Description: Briefly, the production of intracellular cAMP will generate a competition between unlabeled cAMP and exogenously added d2-cAMP for anti-cAMP antibodies conjugated to cryptate. CHO-K1 cells stably expressing the human NPY1, NPY2, NPY4 and NPY5 receptors were used with the cells brought to life from a frozen stock immediately before assay performance. 2000 cells per well were applied for all four NPY receptor subtype assays. A 384-well format was used applying a total volume of 20 μl using 5 μl cells, 2.5 μl peptide agonist, 2.5 μl forskolin and 5 μl of each of the fluorophores. […] Concentration-response evaluation of compounds was performed with 11 concentrations of agonist peptides (covering 3 decades). EC50 values were calculated by nonlinear regression using sigmoid concentration-response with variable slope.

human NPY4 receptor = target: T5, human NPY4 receptor (Homo sapiens, UniProt P50391); assay: HTRF cAMP Gi assay, hY4R; format: cell-based; details: Table 4; CHO-K1 cells
T5 construct: expressed in transfected cells; host or cells: CHO-K1
T5 sequence (P50391 whole entry): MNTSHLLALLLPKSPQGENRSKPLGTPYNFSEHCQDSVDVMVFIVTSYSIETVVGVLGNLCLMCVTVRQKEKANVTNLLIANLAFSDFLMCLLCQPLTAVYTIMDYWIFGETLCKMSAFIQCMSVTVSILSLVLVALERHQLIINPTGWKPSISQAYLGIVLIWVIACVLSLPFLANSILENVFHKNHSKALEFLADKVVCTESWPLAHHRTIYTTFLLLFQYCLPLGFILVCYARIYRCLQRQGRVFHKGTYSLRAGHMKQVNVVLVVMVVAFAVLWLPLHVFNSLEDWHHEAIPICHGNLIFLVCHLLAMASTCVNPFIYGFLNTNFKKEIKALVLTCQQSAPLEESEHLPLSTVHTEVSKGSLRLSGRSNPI

normal NMRI mice = assay: Effect on acute food intake in normal NMRI mice; format: in vivo; details: male NMRI mice, 10 nmol/kg subcutaneously once
Procedure, shortened: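 A single 10 nmol/kg s.c. peptide dose was given 1 h before lights-off to male NMRI mice fasted from 6 h before the night phase (n=7-8). Intake was recorded continuously by microchip-identified HM-2 feeding channels. Values are normalized to vehicle controls (50 mM phosphate buffer pH7 with 5% Mannitol).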

[3] = pH6.1-6.2, assumed 10 mg/ml, read-out: RLB 6 (pH6.1-6.2)
[4] = pH7.1-7.2, assumed 10 mg/ml, read-out: RLB 7 (pH7.1-7.2)
[5] = pH8.1-8.2, assumed 10 mg/ml, read-out: RLB 8 (pH8.1-8.2)
[6] = Table 3, human 125I-PYY (1-36) 0.02 nM, Y2 receptor membranes, read-out: Ki
[7] = Table 8, from DMSO stock, read-out: hY2R RLB Ki (nM) DMSO

Row | SMILES | EC50 (human NPY2 receptor) [nM] | Ki [1, 3] [nM] | Ki [1, 4] [nM] | Ki [1, 5] [nM] | EC50 (human NPY5 receptor) [nM] | Ki [2, 6] [nM] | Ki [2, 7] [nM] | EC50 (human NPY1 receptor) [nM] | EC50 (human NPY4 receptor) [nM] | Acute Food Intake 24 h [% vehicle] (normal NMRI mice)
1 | CC[C@H](C)[C@H](NC(=O)[C@H](CCC(=O)O)NC(=O)[C@H](CCC(=O)O)NC(=O)[C@@H]1CCCN1C(=O)[C@H](CO)NC(=O)[C@H](C)NC(=O)[C@H](CC(=O)O)NC(=O)[C@H](CCC(=O)O)NC(=O)[C@H](CCC(=O)O)NC(=O)[C@@H]1CCCN1C(=O)[C@H](CCCCNC(=O)COCCOCCNC(=O)COCCOCCNC(=O)CC[C@H](NC(=O)CCCCCCCCCCCCCCCCC(=O)O)C(=O)O)NC(=O)[C@H](C)NC(=O)[C@@H]1CCCN1C(=O)[C@H](C)NC(=O)CC(C)C)C(=O)N[C@@H](CCC(N)=O)C(=O)N[C@@H](CCCNC(=N)N)C(=O)N[C@@H](Cc1ccc(O)cc1)C(=O)N[C@@H](Cc1ccc(O)cc1)C(=O)N[C@H](C(=O)N[C@@H](CO)C(=O)N[C@@H](CC(C)C)C(=O)N[C@@H](CCCNC(=N)N)C(=O)N[C@@H](Cc1c[nH]cn1)C(=O)N[C@@H](Cc1ccc(O)cc1)C(=O)N[C@@H](Cc1ccc(O)cc1)C(=O)N[C@@H](CC(N)=O)C(=O)N[C@@H](Cc1c[nH]c2ccccc12)C(=O)N[C@@H](CC(C)C)C(=O)N[C@H](C(=O)N[C@@H](CCCNC(=N)N)C(=O)N[C@@H](CCC(N)=O)C(=O)N[C@@H](CCCNC(=N)N)C(=O)N[C@@H](Cc1ccc(O)cc1)C(N)=O)[C@@H](C)O)C(C)C [Compound 23, N{alpha-4}-(3-methylbutanoyl)-N{epsilon-7}-[2-(2-{2-[2-(2-{2-[(4S)-4-carboxy-4-(17-carboxyheptadecanamido)butanamido]ethoxy}ethoxy)acetamido]ethoxy}ethoxy)acetamido]-[4A,6A,7K,9E,17I,18Q,22V,28Y,30W,31L]hPYY (4-36)] | 0.15 | 6.3 | 6.3 | 6.3 | > 5000 | 0.63 | 4.9 | > 5000 | > 5000 | –
2 | CC[C@H](C)[C@H](NC(=O)[C@H](CCC(=O)O)NC(=O)[C@H](CCC(=O)O)NC(=O)[C@@H]1CCCN1C(=O)[C@H](CO)NC(=O)[C@H](C)NC(=O)[C@H](CC(=O)O)NC(=O)[C@H](C)NC(=O)[C@H](CCC(=O)O)NC(=O)[C@@H]1CCCN1C(=O)[C@H](CCCCNC(=O)COCCOCCNC(=O)COCCOCCNC(=O)CC[C@H](NC(=O)CCCCCCCCCCCCCCCCC(=O)O)C(=O)O)NC(=O)[C@H](CCC(=O)O)NC(=O)[C@@H]1CCCN1C(=O)[C@H](C)NC(=O)CC(C)C)C(=O)N[C@@H](CCC(N)=O)C(=O)N[C@@H](CCCNC(=N)N)C(=O)N[C@@H](Cc1ccc(O)cc1)C(=O)N[C@@H](Cc1ccc(O)cc1)C(=O)N[C@H](C(=O)N[C@@H](CO)C(=O)N[C@@H](CC(C)C)C(=O)N[C@@H](CCCNC(=N)N)C(=O)N[C@@H](Cc1c[nH]cn1)C(=O)N[C@@H](Cc1ccc(O)cc1)C(=O)N[C@@H](Cc1ccc(O)cc1)C(=O)N[C@@H](CC(N)=O)C(=O)N[C@@H](Cc1c[nH]c2ccccc12)C(=O)N[C@@H](CC(C)C)C(=O)N[C@H](C(=O)N[C@@H](CCCNC(=N)N)C(=O)N[C@@H](CCC(N)=O)C(=O)N[C@@H](CCCNC(=N)N)C(=O)N[C@@H](Cc1ccc(O)cc1)C(N)=O)[C@@H](C)O)C(C)C [Compound 53, N{alpha-4}-(3-methylbutanoyl)-N{epsilon-7}-[2-(2-{2-[2-(2-{2-[(4S)-4-carboxy-4-(17-carboxyheptadecanamido)butanamido]ethoxy}ethoxy)acetamido]ethoxy}ethoxy)acetamido]-[4A,7K,9E,10A,17I,18Q,22V,28Y,30W,31L]hPYY (4-36)] | 0.119 | 3.4 | 3.1 | 2.5 | > 5000 | 0.24 | 2 | > 5000 | > 5000 | –
3 | CC(C)CC(=O)N[C@@H](C)C(=O)N1CCC[C@H]1C(=O)N[C@@H](CCC(=O)O)C(=O)N[C@@H](CCCCNC(=O)COCCOCCNC(=O)COCCOCCNC(=O)CC[C@H](NC(=O)CCCCCCCCCCCCCCCCC(=O)O)C(=O)O)C(=O)N1CCC[C@H]1C(=O)N[C@@H](CCC(=O)O)C(=O)N[C@@H](CCC(=O)O)C(=O)N[C@@H](CC(=O)O)C(=O)N[C@@H](C)C(=O)N[C@@H](CCC(=O)O)C(=O)N1CCC[C@H]1C(=O)N[C@@H](CCC(=O)O)C(=O)N[C@@H](CCC(=O)O)C(=O)N[C@@H](CC(C)C)C(=O)N[C@@H](CCC(N)=O)C(=O)N[C@@H](CCCNC(=N)N)C(=O)N[C@@H](Cc1ccc(O)cc1)C(=O)N[C@@H](Cc1ccc(O)cc1)C(=O)N[C@H](C(=O)N[C@@H](CO)C(=O)N[C@@H](CC(C)C)C(=O)N[C@@H](CCCNC(=N)N)C(=O)N[C@@H](Cc1c[nH]cn1)C(=O)N[C@@H](Cc1ccc(O)cc1)C(=O)N[C@@H](Cc1ccc(O)cc1)C(=O)N[C@@H](CC(N)=O)C(=O)N[C@@H](Cc1c[nH]c2ccccc12)C(=O)N[C@@H](CC(C)C)C(=O)N[C@H](C(=O)N[C@@H](CCCNC(=N)N)C(=O)N[C@@H](CCC(N)=O)C(=O)N[C@@H](CCCNC(=N)N)C(=O)N[C@@H](Cc1ccc(O)cc1)C(N)=O)[C@@H](C)O)C(C)C [Compound 188, N{alpha-4}-(3-methylbutanoyl)-N{epsilon-7}-[2-(2-{2-[2-(2-{2-[(4S)-4-carboxy-4-(17-carboxyheptadecanamido)butanamido]ethoxy}ethoxy)acetamido]ethoxy}ethoxy)acetamido]-[4A,7K,9E,13E,18Q,22V,28Y,30W,31L]hPYY (4-36)] | 0.106 | – | – | – | > 5000 | 3.09 | – | > 5000 | > 5000 | 55
